Entries after “also recorded” stand apart in the source; their conditions may differ.
Columns and labels:
[1] = tested on: human oligodendrocytes cell cultures; assay: Metabolic conversion in human oligodendrocytes cell culture (HPLC-MS); assay type: in vitro ADME
Method: (§1) In a slight variant of the method, after reaching confluency of 80% cells were treated with 9CDHROL, 9CDH-retinyl ester (acetate, 9CDHROL-ES), 9CDHRA, 9CDH-retinoyl ester, (ethyl ester, 9CDHRA-ES), ATROL, 9CDHBC, 9CBC and ATBC at a concentration of 10^−6 M or ethanol at corresponding concentration was used as control vehicle treatment. Cells were harvested 18 hours later, centrifuged, weighted, frozen in liquid nitrogen and stored at −80° C. until analyses.
(§2) High performance liquid chromatography mass spectrometry (LC-MS) was carried out as described in Example 4.
9CDHRA levels including standard deviation in human oligodendrocytes cultures were assessed using HPLC-MS analysis after control treatment using ethanol (CTRL), as well as ATROL treatment (ATROL), 9CBC treatments (9CBC), ATBC treatments (ATBC), 9CDHBC treatment (9CDHBC), 9CDHROL treatments (9CDHROL), 9CDHROL-ester treatments (9CDHROL-ES), 9CDHRA treatments (9CDHRA) or 9CDHRA-ester treatments (9CDHRA-ES), each with 10^−6M concentration and n=3 (FIG. 14D).

[2] = tested on: oligodendrocytes cell line 158N; assay: Metabolic conversion in mouse oligodendrocytes cell culture (LC-MS); assay type: in vitro ADME
Method: Normal immortalized oligodendrocytes cell line 158N was cultured as previously reported (Feutz et al., 2001). Expediently, cells were cultured in supplemented with 5% calf serum (Invitrogen, France). When cells attained 70% of confluency they were treated with 10^−2 M ethanol solution of one of the following compounds: 9CDHROL, 9CDHROL-acetate, 9CDHRA-ethyl ester. 9CDHRA and ethanol as controls, vehicle treatment. 18 h after treatment cells were collected in amber Eppendorf tubes and stored at −80° C. until analyses. Treatments and cell collection were carried out in light limited conditions to avoid photolysis of retinoids.
as §1, §2

C57BL/6N mice [3] = assay: Chronic social defeat stress model, forced swim test; assay type: in vivo, mouse; conditions: stressed mice, 10 mg/kg i.p. every second day of stress protocol; 10 mg/kg
Method: (§3) The forced swim paradigm was carried out between 1 pm and 4 pm in a 3-litre glass beaker half-filled with water at 22-23° C. (the water depth was 17 cm). All mice were tested only once in this task. To this end, each mouse was lowered gently into the water and the time of immobility was scored during a 6-minute testing period. The mouse was judged immobile when it floated in an upright position and made only small movements to keep its head above the water. After 6 min, the mouse was taken out of the water, left to dry under a red light lamp and returned to its home cage. The immobility scores of each animal were used as an index of despair behavior.
(§4) Social defeat stress procedure was a modified version of the protocol previously described (Berton, McClung et al. 2006). C57BL/6N mice were defeated chronically for 10 consecutive days. Every day they were exposed to the physical contact with an unfamiliar CD1 aggressor in its home cage for maximal interaction time of 5 minutes. After each session of physical stress, C57BL/6N and CD1 mice were separated by a perforated wall and maintained in sensory contact for 24 h. After the last session of stress, mice were transferred into new cages and housed separately throughout the behavioral tests period. C57BL/6N control mice, similarly to the experimental animals, were housed two per cage separated by a metal perforated wall. Every day, they were exposed to the physical contact for 5 minutes.
(§5) For behavioral analysis, 9CDHROL and 9CDHBC were dissolved in ethanol, and then mixed with sunflower oil, so that the final solution contained 3% ethanol. Vehicle treatments consisted of 3% ethanol solution in sunflower oil. For memory studies treatments with 9CDHRA were administered by intraperitoneal injections at volume/weight ratio 3 ml/kg at 7 am and 7 hours before the beginning of testing. For tests with animal model of chronic social defeat, different treatments were administered by intraperitoneal injections at volume/weight ratio 3 ml/kg at 10 mg/kg for each substance between 5-6 pm every second day of stress protocol immediately after the stress session starting from day 1 of the stress protocol.
as §3, with “paradigm (Dalvi and Lucki, 1999)” for “paradigm”, “2-litre” for “3-litre”
as §4, with “(Berton” for “(Berton, McClung”, “C57BL/6N control mice, similarly to the experimental animals, were housed two per cage separated by a metal perforated wall. Every day, they were exposed to the physical contact for 5 minutes.” left out

C57BL/6N mice [4] = assay: Chronic social defeat stress model, sucrose preference test; assay type: in vivo, mouse; conditions: stressed mice, 10 mg/kg i.p. every second day of stress protocol; 10 mg/kg
Text: This task, designed to measure hedonic behaviors in mice is based on the palatable nature of sucrose observed in a number of mouse strains. On the first day of the test, sucrose-naive mice were placed in individual cages at 11 am and left there with water and food for habituation period. At 5 pm one water bottle was replaced with two bottles: one containing water and another 0.8% sucrose solution. Three hours later (8 pm) the bottles were weighed to measure liquid consumption and were replaced in cages until morning. The measures of an overnight consumption were then carried out for additional day to evaluate sucrose preference. Mice were not water deprived at any moment, in order to measure spontaneous sucrose preference and exclude any potential emotional confounds induced by stress of water deprivation. The sucrose preference was expressed as the percent of sucrose solution consumed with respect to total liquid consumption.
as §4
as §5, with “by intraperitoneal injections at volume/weight ratio 3 ml/kg at 10 mg/kg for each substance between 5-6 pm every second” left out
This task, designed to measure hedonic behavior in mice (Moreau, 1997), is based on the palatable nature of sucrose observed in a number of mouse strains. On the first day of the test, sucrose-naive mice were placed in individual cages at 11 am and left there with water and food for habituation period. At 5 pm one water bottle was replaced with two bottles: one containing water and another 0.8% sucrose solution. Three hours later (8 pm) the bottles were weighed to measure liquid consumption and were replaced in cages until morning. The measures of an overnight consumption were then carried out for additional day to evaluate sucrose preference. Mice were not water deprived at any moment, in order to measure spontaneous sucrose preference and exclude any potential emotional confounds induced by stress of water deprivation. The sucrose preference was expressed as the percent of sucrose solution consumed with respect to total liquid consumption.
Social defeat stress procedure was a modified version of the protocol previously described (Berton et al. 2006). C57BL/6N mice were defeated chronically for 10 consecutive days. […]

[5] = Mouse oral supplementation, retinoid levels in serum, brain and liver (LC-MS); assay type: in vivo; conditions: mice
Method: For metabolic analyses ATROL, 9CDHROL, 9CDHBC and control solutions were prepared as described above. Single per os application of the dose of 40 mg/kg of each substance was used to treat mice in the evening and samples were collected 11 h later in the light protected conditions, weighted, frozen in liquid nitrogen and stored at −80° C. until analyses. Serum was prepared and immediately stored in brown vials at −80° C., till further analysis.
Accordingly, for sample preparation 100 mg of the material (if samples were under 100 mg, water was added up to the used standard weight: 100 mg) or 100 μl serum was diluted with a threefold volume of isopropanol, the tissues were minced by scissors, vortexed for 10 seconds, put in a ultrasonic bath for 5 minutes, shaken for 6 minutes and centrifuged at 13000 rpm in a Heraeus BIOFUGE Fresco at +4° C. […] The dried extracts were resuspended with 30 μl of methanol—MTBE (50-50) and transferred into the autosampler and 10 μl subsequently analysed.
Mouse brain samples were prepared according to the procedure described above. Briefly, after single per os application of the dose of 40 mg/kg of 9CDHROL (or other cited substances) in the evening mice were sacrificed after 11 hours and tissues samples including brain were dissected under light-protection conditions, weighted, frozen in liquid nitrogen and stored at −80° C. until analyses. Serum was prepared and immediately stored in brown vials at −80° C., till further analysis.
For mouse supplementation experiments we treated n=6 mice per os with 40 mg/kg bw 9CDHROL and 11 h after the treatment the mice were killed and blood, brain and liver was taken. After centrifugation of the drawn blood, serum was obtained.

[6] = after column chromatography
[7] = per os 40 mg/kg, 11 h after treatment

In the case of CC1=C(/C=C/C(C)=C\C=C\[C@H](C)C/C=C/C=C(C)/C=C/C=C(C)/C=C/C2=C(C)CCCC2(C)C)C(C)(C)CCC1 (stereo in doubt) [9CDHBC, (R)-9-cis-13,14-Dihydro-β,β-carotene], the “9CDHRA levels in cells after treatment (metabolism / accumulation)” value ([1]; 10^−6M, n=3) is reported as “not converted to 9CDHRA”, the “precursor substrate of 9CDHROL” value ([1]; in vitro) is reported as “excellent precursor substrates” and the “ATROL levels in cells after treatment” value ([2]; 10^−6M) is reported as “a low conversion or induced increase”. The “9CDHROL levels in cells after treatment” value ([2]; 10^−6 M, 18 hours) was “increases; also recorded: moderately”, the “9CBC in cells after treatment” value ([2]; 411 nm detection, retention time 26.1 min) was “no 9CBC could be detected” and the “9CDHBC peak in cells after treatment” value ([2]; UV detection at 366 nm, retention time 25.1 min) was “even higher peak was conclusively detected”. The “conversion to 9CDHRA” value ([2]; data not shown) was “not converted to 9CDHRA”, the “immobility time in the forced swim test” value (C57BL/6N mice [3]) was “decreased such immobility; also recorded: efficiently normalised immobility time” and the “sucrose preference (anhedonia)” value (C57BL/6N mice [4]) was “prevented; also recorded: Anhedonia was abolished”. For the same compound, the “ATROL levels in mouse organs after treatment” value ([5]; oral gavage 40 mg/kg) was “no metabolic conversion”, the “9CDHRA levels in serum, brain and liver after treatment (conversion to 9CDHRA)” value [5, 7] was “moderate but significant increase” and the “9CDHROL levels in serum, brain and liver after treatment” value [5, 7] was “did not increase”. For the same compound, the “stability of the isolated product” value [6] was “very unstable and easily degraded”.

Reference: patent US12029715B2, “Precursor compounds for providing retinoids of the vitamin A5 pathway and uses thereof” (UNIVERSITY OF DEBRECEN, priority 2015, dated 2024)
